# Conditions: not given
Structure (SMILES),boiling point,log10 vapour pressure (mmHg),melting point,ready biodegradability,log10 Koc (L/kg),log10 Koa,log10 biodegradation half-life (days),log10 Henry constant (atm·m³/mol)
CCCCCCC(=O)O,222 °C,-1.97,-7.5 °C,readily biodegradable,,,,
CC(C)[C@@H]1CC[C@@H](C)CC1=O,207 °C,,-6 °C,,,,,
CCC(=O)Cc1ccccc1,230 °C,,,,,,,
Cc1ccc(S(=O)(=O)c2ccc(C)cc2)cc1,406 °C,,159 °C,,,,,
c1ccc2scnc2c1,231 °C,,2 °C,not readily biodegradable,,,,
O=C(O)c1ccc2c(c1)CCCC2,,,156 °C,,,,,
C=CCN(CC=C)CC=C,156 °C,0.561,,not readily biodegradable,,,,
CN1CCC(CCCC2CCN(C)CC2)CC1,,,13.7 °C,,,,,
CC(C)OC(=O)C(O)(c1ccc(Cl)cc1)c1ccc(Cl)cc1,,-6.74,73 °C,,,,,
Cc1ccc2ccc3ccccc3c2c1,350 °C,,65 °C,,,,,
CNC(C)CCC=C(C)C (stereo unspecified),177 °C,,,,,,,
O=C(Nc1ccccc1)NC1CC1,,,,,1.74,,,
CC(=O)c1ccc(C(F)(F)F)cc1,,,31 °C,,,,,
Fc1nc(F)c(Cl)c(F)n1,114 °C,,,,,,,
CC(=O)Nc1ccc(S(=O)(=O)O)cc1,,,,not readily biodegradable,,,,
CC(C)(C)OCC1CO1 (stereo unspecified),152 °C,,-70 °C,,,,,
CCCC(=O)C(C)(C)C,147 °C,,,,,,,
CCOc1ccc2nc(S(N)(=O)=O)sc2c1,,,189 °C,,,,,
CN=C(O)Sc1ccc(OS(C)(=O)=O)cc1,,,137 °C,,,,,
Clc1ccc(CSC(Cn2cncn2)=Nc2ccc(Cl)cc2Cl)cc1,,-9.2,90 °C,,,,,

Structure (SMILES),boiling point,log10 vapour pressure (mmHg),melting point,ready biodegradability,log10 Koc (L/kg),log10 Koa,log10 biodegradation half-life (days),log10 Henry constant (atm·m³/mol)
NC(=O)c1ccc([N+](=O)[O-])cc1Cl,,,172 °C,readily biodegradable,,,,
Nc1c(Cl)cc(-c2cc(Cl)c(N)c(S(=O)(=O)O)c2)cc1S(=O)(=O)O,,,,not readily biodegradable,,,,
CC(C)S(=O)(=O)n1c(N)nc2ccc(/C(=N/O)c3ccccc3)cc21,,,198 °C,,,,,
CCOC(=S)SSC(=S)OCC,,,30 °C,,,,,
Cc1ccc([N+](=O)[O-])c(C)c1,247 °C,-1.24,9 °C,,,,,
OC(Cc1ccccc1)(c1ccccc1)c1ccccc1,,,89.5 °C,,,,,
CCOS(=O)(=O)OCC,208 °C,-0.674,-24 °C,readily biodegradable,,,,
CCCCCCCC[Si](Cl)(Cl)Cl,232 °C,,,,,,,
CCOC(=O)[C@H](C)Cl,147 °C,0.557,,,,,,
C=C(CC(=O)OCC)C(=O)OCC,228 °C,,58.5 °C,,,,,
Nc1ccc(F)cc1,182 °C,,-0.8 °C,,,,,
Fc1cccc2[nH]nnc12,,,,,1.87,,,
O=C(c1ccccc1)c1ccc(C(F)(F)F)cc1,,,115 °C,,,,,
O=C(O)c1cc2ccccc2o1,312 °C,,192 °C,,,,,
CCCC(=O)OCC,122 °C,1.11,-98 °C,,,3.56,,
c1ccc2nncnc2c1,238 °C,,75.8 °C,,,,,
c1ccc(Cc2ccc3ccccc3c2)cc1,350 °C,,58 °C,,,,,
C#C[C@]1(O)CC[C@H]2[C@@H]3CCc4cc(OC5CCCC5)ccc4[C@H]3CC[C@@]21C,,,108 °C,,,,,
N=CN,,,81 °C,,,,,
CNC(=O)Oc1ccc2c(c1)[C@]1(C)CCO[C@@H]1N2C,,,124 °C,,,,,

Structure (SMILES),boiling point,log10 vapour pressure (mmHg),melting point,ready biodegradability,log10 Koc (L/kg),log10 Koa,log10 biodegradation half-life (days),log10 Henry constant (atm·m³/mol)
CCOC(=O)CCC(=O)O,,,8 °C,,,,,
CCCCC(C)C(C)CC (stereo unspecified),163 °C,,,,,,,
C=CCCC=C,59.4 °C,2.34,-141 °C,,,,,
C1COCCN1,128 °C,1,-4.9 °C,not readily biodegradable,,,,
CC[N+](C)(CC)CCOC(=O)C1c2ccccc2Oc2ccccc21.[Br-],,,174 °C,,,,,
COc1cc(Cl)cc(Cl)c1,,,41 °C,,,,,
NCc1cc(O)no1,,,175 °C,,,,,
O=[N+]([O-])c1ccc(C(F)(F)F)cc1,,,39 °C,,,,,
c1cnc2c(c1)ccc1cccnc12,,,117 °C,,,,,
CN1C(=O)C(O)N=C(c2ccccc2Cl)c2cc(Cl)ccc21 (stereo unspecified),,,206 °C,,,,,
CCCC(C)CC (stereo unspecified),91 °C,1.79,-119 °C,,,,0.954,
ClCc1cccc(Cl)c1,216 °C,,,,,,,
CCCOC(=O)Nc1ccccc1,,,,,2.06,,,
CCCCCCCCCCCCCCCBr,322 °C,-3.83,19 °C,,,,,
CCCCCCCCCCCCCC(=O)OCc1ccccc1,,,20.5 °C,,,,,
CCCSCCC,143 °C,0.81,-102 °C,,,,,-2.49
NCc1ccc(Br)cc1,250 °C,,20 °C,,,,,
CC(=O)Oc1c(C)cc(OCC(O)CNC(C)C)c(C)c1C (stereo unspecified),,,106 °C,,,,,

# Same assay, conditions: fish
Structure (SMILES),log10 biotransformation half-life (days),log10 BCF
Clc1ccc(-c2c(Cl)cccc2Cl)c(Cl)c1,2.47,
Brc1ccc(Br)cc1,0.31,2.21
CON(C)C(=O)Nc1ccc(Cl)c(Cl)c1,-0.97,1.25
Cc1cc2cccc(CCCC(C)C)c2cc1C,0.06,
c1ccc2scnc2c1,-0.86,0.88
C=CCN(CC=C)CC=C,,0.55
CCN(CC)c1ccc2c(-c3ccccc3C(=O)O)c3ccc(N(CC)CC)cc3[o+]c2c1,,0.23
C1COCCN1,,0.45
